Values of other authors in patent US20250114332A1 (LABORATORIOS SILANES S.A. DE C.V., priority 2023, published 2025).
Like-named read-outs stand apart in the source and are kept apart here.

Settings: drug substance

Biopharmaceutical classification (listed as acetaminophen) | SMILES | Biopharmaceutical classification
group III | CC(=O)Nc1ccc(O)cc1 [Acetaminophen, N-(4-hydroxyphenyl) acetamide] | Group III (high solubility and low permeability)
 | Cc1ccc(-c2cc(C(F)(F)F)nn2-c2ccc(S(N)(=O)=O)cc2)cc1 [Celecoxib] | Belongs to group II (high permeability and low
